Experimental data: patent publication US20230293614A1, “COMPOSITIONS AND METHODS OF TREATING UPS-ASSOCIATED DISEASES” (Board of Supervisors of Louisiana State University and …, priority 2020, published 2023)

Assays:
Assay type in all cases: cell-based
[1] = system: deubiquitinating enzymes (DUBs); experiment: DUB activity (Z-LRGG-AMC cleavage) in lysates of treated OPM2 cells; details: for Vmax / effect on DUB activity vs DMSO control / Km / n (Hill coefficient): 16 h
Method: OPM2 cells were maintained in RPMI 1640 media supplemented with 12% FBS, 21.8 mM glucose, 8.6 mM HEPES (pH 7.4) and 1.0 mM sodium pyruvate. MM.1S cell line were maintained in RPMI 1640 media supplemented with 10% FBS. The cells were all cultured in T175 flasks (VWR, Radnor, Pa.). All media components were from Corning, Atlanta, Ga. unless otherwise noted. To test the effect of the ethanolic extract and bioactive compounds on DUB activity, cells were exposed to a 16-h pretreatment with 10 μg/mL of PMI-5011 and 1, 10, 30 μg/mL concentrations of DMC-1, DMC-2, KOE, and davidigenin before lysing the cells for experimentation. All compounds were reconstituted in DMSO to obtain stock concentrations, which was further diluted in culture media to obtain the desired experimental concentrations. For vehicle control, a subpopulation of cells was treated with pure DMSO diluted in a similar manner for the same duration. Upon treatment, cell lysates (both OPM2 and MM.1S) were generated by harvesting 1×10^6 cells/mL, followed by washing 2× and pelleting in phosphate buffered saline (PBS; 137 mM NaCl, 10 mM Na2HPO4, […], and 1.75 mM KH2PO4 at pH 7.4). The cell pellet was re-suspended in an approximately equivalent volume of M-PER to the volume of the cell pellet (1000-2000 μL) then vortexed for 10 min at room temperature. Following this, the mixture was centrifuged at 14,000×g for 15 min at 4° C. and the supernatant transferred to a centrifuge tube and stored on ice until use. Total protein concentration was determined using a NanoDrop 2000c (Thermo Scientific, Madison, Wis.).
The commercial DUB reporter, Z-LRGG-AMC (substrate) (SEQ ID NO: 1) was reconstituted in DMSO to obtain a final stock concentration of 1.44 mM. This stock reporter was diluted as needed in assay buffer (50 mM HEPES, pH 7.4, 150 mM NaCl, 2 mM DTT, and 0.02% Tween-20) supplemented with 4 mg/mL cell lysates (source of DUBs) to reach the desired reporter concentration with a final volume of 100 μL in a 96-well plate. OPM2 and MM.1S cell lysates from different treatments (10 μg/mL of PMI-5011; 1, 10, and 30 μg/mL of DMC-1, DMC-2, KOE, davidigenin and control vehicle DMSO) and C2C12 cell lysates were used to interrogate the effect of the ethanolic extract and selected bioactive compounds on DUB activity. Reporter only and lysates only (noise/background) samples were included in the 96-well plate to confirm that the rates observed were due to DUB-mediated hydrolysis initiated by the cell lysates. The 96-well plate was maintained at a temperature of 30° C. in the dark for the duration of the experiment. The fluorescence signals emitted as a result of DUB-mediated cleavage of AMC (λex=355 nm and λem=460 nm) were quantified using a Wallac 1420 VICTOR2 multilabel HTS counter fluorometry (Perkin Elmer (Waltham, Mass.). Readings were collected every 30 min for 6 h. The normalized signals were obtained by comparing the treatment with noise and background fluorescence values which were then statistically analyzed for their significance. Each data point represents triplicate data points from duplicate experiments. A calibration curve was generated for known concentrations of AMC to correlate the fluorescence signal (AU) to concentration (μM). The approximate concentration of free fluorophore was used to calculate reaction rates (μM/min) for each substrate concentration using linear regression analysis.
All data visualization, interpretation and curve-fittings were performed using Origin Pro (OriginLab, Northampton, MA) while statistical analyses of experimental data were carried out using SAS 9.4 (SAS Solutions). The analyses of enzyme-substrate reactions in all cell lysates started with scatter plotting the fluorometry signals (p,M) measured for each substrate concentration against time (min). Fluorescence signals measured for each substrate concentration remained stable during the first 30 min, indicating there was a 30-minute lag period before reaction initiation. […]

[2] = MTT cellular viability assay, MM.1S; details: human, MM.1S cells, read-out: percentage of viable cells
Method: (§1) The effect of PMI-5011 and bioactive compounds on the viability of cells was tested using a standard colorimetric MTT assay. The MTT Cell Proliferation Assay Kit was purchased from VWR, Radnor, Pa. MM.1S and OPM2 cells were treated with 10 μg/mL of PMI-5011 and 1, 10, and 30 μg/mL of DMC-1, DMC-2, KOE and davidigenin and plated at a density of 10^6 cells/mL in a 96-well plate with each well containing 250 μL of the sample. The plated cells were then incubated at 37° C. for 16 h. 10 μg/mL for PMI-5011 and a 16-h treatment period was used in this study based on previous findings by Yu et al.^24 Parallel plates were prepared for positive and negative solvent vehicle control with the same volume of DMSO and ethanol as for the treated cells. On the day of the experiment, the 96-well plates were centrifuged at 1000×g at 4° C. for 5 min in a microplate compatible centrifuge. The media was discarded and 50 μL of serum-free media and 50 μL of the MTT reagent were added into each well. For a background control, 50 μL of the MTT reagent was added into a well containing media only (no cells). The plate was incubated at 37° C. for 3 h in the dark. After incubation, 150 μL of the MTT solvent was added into each well. The plate was wrapped in a foil and placed on an orbital shaker for 15 min. Finally, the absorbance was measured at λex=544 nm and λem=590 nm using a Wallac 1420 VICTOR2 multilabel HTS counter fluorometry (Perkin Elmer (Waltham, Mass.). The percentage viable cells was obtained by Eq. 1.
(§2) % Viable Cells=S-N/C-N×100 (Eq. 1)
(§3) Where, S denotes raw absorbance values from samples, N denotes average absorbance value of the background control and C denotes the highest average absorbance value of positive vehicle control. The obtained percentage cytotoxicity values were then statistically analyzed for their significance. Each data point represents triplicate data points from duplicate experiments. The effect of PMI-5011 and the selected bioactive compounds on C2C12 cell viability has previously been reported.^24

[3] = MTT cellular viability assay, OPM2; details: human, OPM2 cells, read-out: percentage of viable cells
Method: as §1, §2, §3

In the case of `COc1ccc(CCC(=O)c2ccc(O)cc2O)cc1` [DMC-2, 1-(2,4-dihydroxyphenyl)-3-(4-methoxyphenyl)propan-1-one], the Vmax ([1]; OPM2, 1 μg/mL) is reported as 21.38 ± 2.68 µM/min, the “effect on DUB activity vs DMSO control” value ([1]; OPM2, 1 μg/mL) is reported as “significantly enhanced” and the Vmax ([1]; OPM2, 10 μg/mL) is reported as 22.71 ± 1.64 µM/min. The “effect on DUB activity vs DMSO control” value ([1]; OPM2, 10 μg/mL) was “significantly enhanced”, the Vmax ([1]; OPM2, 30 μg/mL) was 184.79 ± 22.09 µM/min and the “effect on DUB activity vs DMSO control” value ([1]; OPM2, 30 μg/mL) was “significantly enhanced”. The “effect of increasing concentration on DUB activity (normalized Vmax)” value ([1]; OPM2, 1, 10, 30 μg/mL, regression fit) was “exponential increase”, the Km ([1]; Table 2, OPM-2, 1 μg/mL) was 44.8 µM and the “n (Hill coefficient)” value ([1]; Table 2, OPM-2, 1 μg/mL) was 1.47. For the same compound, the Vmax ([1]; Table 2, OPM-2, 1 μg/mL, in µM/min) was 21.38, the Km ([1]; Table 2, OPM-2, 10 μg/mL) was 35.5 µM and the “n (Hill coefficient)” value ([1]; Table 2, OPM-2, 10 μg/mL) was 1.59. For the same compound, the Vmax ([1]; Table 2, OPM-2, 10 μg/mL, in µM/min) was 22.71, the Km ([1]; Table 2, OPM-2, 30 μg/mL) was 48.2 µM and the “n (Hill coefficient)” value ([1]; Table 2, OPM-2, 30 μg/mL) was 1.49. It also gave a Vmax ([1]; Table 2, OPM-2, 30 μg/mL, in µM/min) of 184.79, a viability at 16 h, 1 μg/mL ([2]; 1 μg/mL) of roughly 100% and a viability at 16 h, 30 μg/mL ([2]; 30 μg/mL) of roughly 65%. It also gave a viability at 16 h, 1 μg/mL ([3]; 1 μg/mL) of roughly 85% and a viability at 16 h, 30 μg/mL ([3]; 30 μg/mL) of roughly 70%.
